Experimental findings from patent US7968725B2, “Pyridinyl modulators of γ-secretase” (Janssen Pharmaceutica N.V., priority 2008, dated 2011) are described below.

What is called inhibition is how much of the control response was suppressed. Higher therefore signals strong suppression. One may read the EC50 as the concentration at which the effect is half-maximal. Read a low EC50 as greater potency.

In the first assay the target is T1, γ-secretase (Homo sapiens, UniProt P49768).
T1 construct: endogenous in cells; host or cells: SKNBE2 cells carrying APP 695 wild type
Kind of assay: Screening for γ-secretase-modulating activity in SKNBE2 cells carrying the APP 695-wild type (assay per Citron et al 1997). It is filed as cell-based. The conditions noted are these: @ 1 uM; SKNBE2 cells carrying APP 695-wild type. The protocol:
Screening of the Compounds of the Invention for γ-Secretase-Modulating Activity
Screening was carried out using SKNBE2 cells carrying the APP 695-wild type, grown in DMEM/NUT-mix F12 (HAM) provided by Gibco (cat no. 31330-38) containing 5% Serum/Fe supplemented with 1% non-essential amino acids.
Cells were grown to near confluency.
The screening was performed using the assay as described in Citron et al (1997) Nature Medicine 3: 67.
The molecule `CC(C)CC(C(=O)O)c1cc(-c2ccc(C(F)(F)F)cc2)nc(-c2ccc(C(F)(F)F)nc2)c1` (stereo not drawn) [Example 30, 4-Methyl-2-[6′-trifluoromethyl-6-(4-trifluoromethyl-phenyl)-[2,3′]bipyridinyl-4-yl]-pentanoic acid] showed an inhibition at 1 µM of 0%.
On the same count and under the same terms, the same measure for `CC(C)CC(C(=O)O)c1cc(-c2ccc(C(F)(F)F)cc2)nc(-c2ccc(S(C)(=O)=O)cc2)c1` (stereo not drawn) [Example 39, 2-[2-(4-Methanesulfonyl-phenyl)-6-(4-trifluoromethyl-phenyl)-pyridin-4-yl]-4-methyl-pentanoic acid]: 18%; for `CC(C)CC(C(=O)O)c1cc(-c2ccc(C(F)(F)F)cc2)nc(-c2ccc3c(c2)OCO3)c1` (stereo not drawn) [Example 33, 2-[2-Benzo[1,3]dioxol-5-yl-6-(4-trifluoromethyl-phenyl)-pyridin-4-yl]-4-methyl-pentanoic acid]: 20%; for `CC(C)CCN(c1ccc(C(C)(C)C)cc1)c1cc(C(CC(C)C)C(=O)O)cc(-c2ccc(C(F)(F)F)cc2)n1` (stereo not drawn) [Example 46, 2-[2-[(4-tert-Butyl-phenyl)-(3-methyl-butyl)-amino]-6-(4-trifluoromethyl-phenyl)-pyridin-4-yl]-4-methyl-pentanoic acid]: 22%.
In the case of `CC(C)CC(C(=O)O)c1cc(-c2ccc(C(F)(F)F)cc2)nc(-c2cc(F)ccc2F)c1` (stereo not drawn) [Example 25, 2-[2-(2,5-Difluoro-phenyl)-6-(4-trifluoromethyl-phenyl)-pyridin-4-yl]-4-methyl-pentanoic acid], at 1 µM the inhibition was 19%.
`C=C(C)CC(C(=O)O)c1cc(-c2ccc(C(F)(F)F)cc2)nc(-c2ccc(F)cc2F)c1` (stereo not drawn) [Example 23, 2-[2-(2,4-Difluoro-phenyl)-6-(4-trifluoromethyl-phenyl)-pyridin-4-yl]-4-methyl-pent-4-enoic acid] gave an inhibition at 1 µM of 0%.

The same assay, now with this note: SKNBE2 cells carrying APP 695-wild type.
In the case of `CC(C)CCN(c1ccc(C(F)(F)F)cc1)c1cc(C(CC(C)C)C(=O)O)cc(-c2ccc(C(F)(F)F)cc2)n1` (stereo not drawn) [Example 41, 4-Methyl-2-[2-[(3-methyl-butyl)-(4-trifluoromethyl-phenyl)-amino]-6-(4-trifluoromethyl-phenyl)-pyridin-4-yl]-pentanoic acid], the EC50 stood at 300 nM.
The same measure, in the same setting: the value for `CC(C)CC(C(=O)O)c1cc(-c2ccc(OC(F)(F)F)cc2)nc(-c2ccc(C(F)(F)F)cc2)c1` (stereo not drawn) [Example 3, 4-Methyl-2-[2-(4-trifluoromethoxy-phenyl)-6-(4-trifluoromethyl-phenyl)-pyridin-4-yl]-pentanoic acid] was 380 nM; that for `CC(C)CC(C(=O)O)c1cc(-c2ccc(C(F)(F)F)cc2)nc(-c2cc(F)cc(F)c2)c1` (stereo not drawn) [Example 10, 2-[2-(3,5-Difluoro-phenyl)-6-(4-trifluoromethyl-phenyl)-pyridin-4-yl]-4-methyl-pentanoic acid] was 200 nM.
